# Patent US11613552B2, “Pharmaceutical agents, compositions, and methods relating thereto” (Alltech, Inc., priority 2017, dated 2023)
# What was measured:
# HepG2 cells = test: Glucose production assay in HepG2 cells; assay type: cell-based, human; conditions: tested doses, serum-free glucose production media, 48 hr (FIG. 1)
# Protocol: Equal numbers of Human HepG2 or rat H4IIE cells (1-1.5×10^5 cells/well) were seeded on 96 well plates in 10% FBS-containing media for 24 hr. Cells were then washed twice with PBS, and treated with various concentrations of compounds, metformin or insulin in 100 μl of glucose production media (glucose-free, phenol red-free DMEM media supplemented with 20 mM sodium lactate, 2 mM sodium pyruvate and 5 mM HEPES) at 37° C. for 24 hr (H4IIE cells only) or 48 hr (HepG2 cell only). Cells were also incubated with 0.24% DMSO (the maximal volume of DMSO solvent used in the experiments).
# After the above treatments, 50 μl of culture media were collected, and subjected to glucose analysis using Molecular Probes Amplex Red glucose assay kit (Cat #A22189) according to the manufacturer's protocol. Cell numbers or viability in the culture plate after the above compound treatments were determined using Promega's CellTiter96® AQueous One Solution Cell Proliferation Assay kits, according to the manufacturer's protocol and instructions. In brief, after removing 50 μl of culture media for glucose assay, cells were incubated with AQueous One solution (25 μl stock solution and 50 μl prewarmed PBS/per well) at 37° C. for 1 hour, and the absorbance of OD490 nm in each sample was determined by the Bio-Tek microplate reader. Cell viability in culture wells were determined by the subtraction of OD490 nm in cultured cells with the OD490 nm in plain culture media (without seeding of cells). Glucose production in the culture cells were obtained by normalizing the glucose concentration in culture media by cell viability in each well. At least 3 samples per each treatment were examined for the above analysis. Data are presented as Mean±SEM of those samples. Experiments were repeated at least twice.
# The half maximal inhibitory concentration (IC50 values) of Compound #43 or metformin for the inhibition of glucose production were determined using the ED50 Plus v1.0 online software.
# Lepr^db/db mice = test: Glucose tolerance test in Lepr^db/db mice; assay type: in vivo, mouse
# Protocol: Male Lepr^db/db mice at 38 days of age were intraperitoneally (ip) injected daily with physiological saline ([…]) containing 0.2% DMSO, Compound #C, Compound #50, Compound #68, and/or Compound #43 (25 μg selenium or sulfur equivalents of each compound per kilogram body weight, diluted in sterile physiological saline) for periods ranging from 43-90 days. Body weights of the above treated mice were recorded daily using a balance and any visible abnormal animal gross morphology and walking behavior were monitored daily. After the treatments, animals were fasted overnight and then subjected to blood glucose or HbA1c assays, glucose tolerance tests or tissue collections.
# For comparative studies of any potential anti-diabetic effects of Compounds #43, #69 and #70, male Lepr^db/db mice at 41 days of age were intraperitoneally (ip) injected daily with physiological saline ([…]) containing 0.2% DMSO, Compound #43, Compound #69, or Compound #70 (25 μg selenium of each compound per kilogram body weight, diluted in sterile physiological saline). After the treatments for 43 days, animals were fasted overnight and then subjected to blood glucose and glucose tolerance tests. After daily treatments of these compounds for 90 days, sera from these animals were collected and then subjected to blood HbA1c assays.
# Glucose tolerance tests were performed as described previously (Li et al, Int J Biol Sci 2008; 4:29-36). Briefly, overnight-fasted Lepr^db/db mice after saline or compound treatments were injected intraperitoneally with 2 grams/kg body weight of 20% D-glucose. Blood glucose levels at time 0 (immediately before the injection of glucose), 0.25, 0.5, 1 and 2 hours after injection of glucose were determined using a glucometer with a maximum glucose measurement capacity of 600 mg/dL. Because of this, blood glucose levels over 600 mg/dL were counted as 600 mg/dL in the data analysis.
# G6pc [1] = test: QRT-PCR of G6pc mRNA in livers of Lepr^db/db mice; assay type: in vivo, mouse; conditions: 25 μg selenium/kg ip daily, 52 days (FIG. 9)
# Protocol: Male Lepr^db/db mice (C57BL/6J strain, purchased from The Jackson Laboratory) at 38-days of age were intraperitoneally injected daily with physiological saline ([…]) containing 0.2% DMSO, Compound #50, or Compound #43 (25 μg selenium equivalent of each compound per kilogram body weight, diluted in the sterile physiological saline) for 52 days. After the treatment, livers were collected and subjected RNA analysis.
# (§1) Total RNA from saline- or selenium compound-treated Lepr^db/db mice was isolated using a Qiagen RNAeasy RNA isolation kit according to the Manufacturer's protocol. Total RNA from cultured cells was isolated using Trizol (Invitrogen) according to the manufacturer's protocol, and then incubated with DNase I to remove any potential contaminating genomic DNA. RNA samples were subjected to real-time PCR (QRT-PCR) analysis using Applied-Bioscience's RT kit and predesigned Taqman probes (Invitrogen), as described previously (Lan et al EMBO J 2003). Data were normalized by Actin B (Actb) mRNA levels in each sample, and are presented as mean±SEM of 3-5 samples.
# G6pc [2] = test: QRT-PCR of basal G6pc expression in AML-12 cells; assay type: cell-based, mouse; conditions: 300 ppb selenium (3.8 μM), serum-free, 24 hr (FIG. 10A)
# Protocol: For RNA analysis of basal G6pc expression (without the presence of diabetic stimuli: 8-CPT/Dex), amplified AML-12 and HepG2 cells were cultured on 24-well plates (0.5-2×10^5 cells/well) overnight in 10% FBS ITS- and Dex-free DMEM/F12 media and 10% FBS EMEM media, respectively. These cells were rinsed twice with PBS to remove residual sera. Then, the PBS-washed HepG2 cells were treated without or with insulin or Compound #43 in serum-free EMEM media for 40 hr. In some experiments, the PBS-washed AML-12 cells were incubated without or with Compound #43 or other selenium compounds in serum-free DMEM/F12 media for 24 hours. In other experiments, amplified AML-12 cells were pretreated without or with Compound #43 (150 or 300 ppb) in 10% FBS but ITS/Dex-free DMEM/F12 media for 24 hr. After 24 hr treatment, AML-12 cells were washed twice with PBS (to remove any residual serum in the culture) and then treated with insulin, Compound #43 or both, in the serum-free DMEM/Dex media for 6 hr.
# as §1
# Glut4 = test: QRT-PCR of Glut4 mRNA in livers of Lepr^db/db mice; assay type: in vivo, mouse; conditions: 25 μg selenium/kg ip daily, 52 days (FIG. 15)
# Protocol: Male Lepr^db/db mice (C57BL/6J strain, purchased from The Jackson Laboratory) at postnatal day 38 were intraperitoneally injected daily with physiological saline ([…]) containing 0.2% DMSO, Compound #43, or Compound #50 (25 μg selenium of each compound per kilogram body weight, diluted in sterile physiological saline) for 52 days. After treatment, livers were collected and subjected to RNA analysis.
# Total liver RNA from saline- or Compound #43-treated Lepr^db/db mice was isolated using a Qiagen RNAeasy RNA isolation kit according to the Manufacturer's protocol. Total RNA from cultured cells was isolated using Trizol (Invitrogen) according to the manufacturer's protocol, and then incubated with DNase I to remove any potential contaminating genomic DNA. RNA samples were subjected to real-time PCR analysis using Applied-Bioscience's RT kit and predesigned Taqman probes (Invitrogen), as described previously (Lan et al EMBO J 2003). Data were normalized by Actin B (Actb) mRNA levels in each sample and are presented as mean±SEM of 3-5 samples.
# C2C12 cells = conditions: each individually, mouse skeletal muscle myoblast C2C12 cells; cited from earlier work
# brain cells = conditions: cited from earlier work
# Tau = conditions: AD brains; cited from earlier work
Compound,effect on glucose production in HepG2 cells (HepG2 cells),"blood glucose level at 2 hr after glucose injection (Lepr^db/db mice; FIG. 8A, 43 days treatment)","blood glucose levels at 0.25, 0.5 and 1 hr after glucose injection (Lepr^db/db mice; FIG. 8A, 43 days treatment)",effect on G6pc mRNA levels in the liver (G6pc [1]),effect on G6pc expression (G6pc [2]),effect on Glut4 mRNA levels in the liver (Glut4),"glucose tolerance (overall) (Lepr^db/db mice; 25 μg selenium/kg ip daily 43 days from day 38, glucose 2 g/kg (FIG. 8A))",mitochondrial (MT) potential (C2C12 cells),gluconeogenesis in brain cells (brain cells),Tau hyperphosphorylation (Tau)
"C[Se]C[C@H]1O[C@@H](n2cnc3c(N)ncnc32)C2OC(=O)OC21 (stereo partly shown) [Compound #50, Adenosine, 5′-Se-methyl-5′-seleno-, cyclic 2′,3′-carbonate]",inhibited glucose production,significant decrease of glucose level,no obvious decrease,"slightly, but not significantly, decreased",did not significantly inhibit G6pc expression,numerically increased Glut4 mRNA levels,,,,
"C[Se]C[C@H]1O[C@@H](n2cnc3c(N)ncnc32)[C@@H](O)C1O (stereo partly shown) [Compound C, 5′-Methylselenoadenosine, reference compound]",inhibited glucose production,,,,did not significantly inhibit G6pc expression,,did not improve glucose tolerance,can enhance mitochondrial (MT) potential,can enhance gluconeogenesis in brain cells,can inhibit Tau hyperphosphorylation in AD brains
"Nc1ncnc2c1ncn2[C@@H]1O[C@H](C[Se]CC[C@H](N)C(=O)O)C(O)C1O (stereo partly shown) [Compound D, 5′-Selenoadenosyl homocysteine, reference compound]",inhibited glucose production,,,,did not significantly inhibit G6pc expression,,,can enhance mitochondrial (MT) potential,,can inhibit Tau hyperphosphorylation in AD brains
